Test results from patent US20110082220A1, “PORCINE UMAMI TASTE RECEPTORS AND USES THEREFOR” (The Regents of The University of California, priority 2007, published 2011).
Where “and” joins values, the source holds several entries; their conditions need not be identical. Equal entries are not always repeated.

Tests used:
[1] = tested on: Pig umami receptor (T1R1/T1R3); assay: Screening assay for ligands: calcium influx via pig umami receptor in transfected CHO-K1 cells (Fluo-4 NW); assay type: cell-based; conditions: for Absorbance Mean: CHO-K1 cells with pig taste receptors and mouse G alpha 15; for Index Relative to control: ratio of calcium influx to control (no treatment = 1.00); for response index: example test run, background (no treatment) = response ratio 1.0, concentration not given; for stimulation of the pig umami receptor (signal, in words): CHO-K1 cell system, calcium signal
weaned piglets = assay: Double-choice preference test in drinking water, weaned piglets; assay type: in vivo, pigs (Landrace×Large White); conditions: 0.5 M solution vs tap water; for % of preference Mean: two minutes, ad libitum conditions
Description: This example tests preferences in drinking water for amino acids L-Glutamine and L-Lysine in weaned piglets maintained in ad libitum conditions.
A total number of 58 pigs (Landrace×Large White) of 18±2 Kg BW, half males and half females, were used in this study. The test pigs were selected according to their level of stress and behaviour in front of social isolation, reaction to novelty and training to perform a choice between two containers that had the test solution (sugar at 0.5M) and control solution (tap water) after an habituation period of four days. During the habituation period, individual pigs were maintained in contiguous pens in front of two unfamiliar red plastic containers (double-choice test) during 10 minutes every day. On the fourth day, animals were trained for performing the test. […] Selected test animals were maintained in groups of four and three pen mates under ad libitum conditions, feed and water, with a balanced diet according to their requirements. During the experimental sessions, pigs were exposed simultaneously to two different solutions (approximately 250 g in each container) for a time period of two minutes. One of the solutions was tap water (control) and the other contained a 0.5M solution of one of the amino acids tested (test). Volume depletion of both test and control solutions were recorded and the % preference related to the test solution calculated as follows: […]

## NC(CCP(=O)(O)O)C(=O)O [L-AP4]
[1]; treatment 5 mM
  Absorbance Mean: 8907
  Index Relative to control: 1.07
[1]; treatment 10 mM
  Absorbance Mean: 9316
  Index Relative to control: 1.12

## C[C@H](N)C(=O)O [alanine]
[1]
  response index: 3.47

## NCC(=O)O [Glycine]
[1]; treatment 1 mM
  Absorbance Mean: 8874
  Index Relative to control: 1.06
[1]; treatment 5 mM
  Absorbance Mean: 9543
  Index Relative to control: 1.14

## N[C@@H](CC(=O)O)C(=O)O [Aspartate]
[1]; treatment 1 mM
  Absorbance Mean: 8619
  Index Relative to control: 1.03
[1]; treatment 10 mM
  Absorbance Mean: 10352
  Index Relative to control: 1.24^1

## NCCCC[C@H](N)C(=O)O [L-Lysine]
[1]
  stimulation of the pig umami receptor (signal, in words): little or no capacity
Weaned piglets
  preference (in words): negative preference
  % of preference Mean: 37.66%
Weaned piglets; study not given
  preferences over tap water: about 38%

## Cl.NCCCC[C@H](N)C(=O)O [Lysine HCl]
[1]; treatment 10 mM
  Absorbance Mean: 9319
  Index Relative to control: 1.12
[1]; treatment 30 mM
  Absorbance Mean: 9675
  Index Relative to control: 1.16

## C/C=C(/C)C(=O)O[C@H]1C(C)=C2[C@H]([C@@H]1OC(=O)CCCCCCC)[C@@](C)(OC(C)=O)C[C@H](OC(=O)CCC)[C@@]1(O)[C@H]2OC(=O)[C@@]1(C)O [thapsigargin, reference compound]
[1]
  response index: 17.89

## N[C@@H](CO)C(=O)O [Serine]
[1]; treatment 5 mM
  Absorbance Mean: 8372
  Index Relative to control: 1.00
[1]; treatment 10 mM
  Absorbance Mean: 9697
  Index Relative to control: 1.16

## NC(=O)CC[C@H](N)C(=O)O [Glutamine, L-Glutamine]
[1]; listed as L-Glutamine
  stimulation of the pig umami receptor (signal, in words): high degree of stimulation
[1]; listed as glutamine
  stimulation of the pig umami receptor (signal, in words): the strongest and the most significant signal
[1]; treatment 1 mM
  Absorbance Mean: 10901
  Index Relative to control: 1.31^1
[1]; treatment 10 mM
  Absorbance Mean: 10038
  Index Relative to control: 1.20^1
Weaned piglets
  % of preference Mean: 59.56% and 79.28%
Weaned piglets; 1st study
  preferences over tap water: 60%
Weaned piglets; 2nd study
  preferences over tap water: 79%

## N[C@@H](CS)C(=O)O [cysteine]
[1]
  response index: 0.83

## O=P(O)(O)O[C@@H]1[C@@H](O)[C@H](O)[C@@H](O)[C@H](O)[C@@H]1O [IMP, inositol monophosphate]
[1]; treatment 2.5 mM
  Absorbance Mean: 9161
  Index Relative to control: 1.10

## CC(C)C[C@H](N)C(=O)O [Leucine]
[1]
  stimulation of the pig umami receptor (signal, in words): the strongest and the most significant signal
[1]; treatment 10 mM
  Absorbance Mean: 9163
  Index Relative to control: 1.10
[1]; treatment 30 mM
  Absorbance Mean: 10161
  Index Relative to control: 1.22^1
